The results in this text go back to patent publication US5712139A, “Pyranose oxidase, pyranose oxidase gene, novel recombinant DNA and process for producing pyranose oxidase” (Kikkoman Corporation, priority 1994, dated 1998).

For one assay, the target named is T1, pyranose oxidase (Trametes versicolor, UniProt P79076).
T1 construct: purified, about 290 kDa by gel filtration; mature N-terminus […] in fungal enzyme; pPRME18 is the alternative N-terminally shortened construct
The assay is described as follows: Substrate specificity of pyranose oxidase (hydrogen peroxide / 4-aminoantipyrine-phenol-peroxidase colour reaction). Conditions: pH 7. The class given is biochemical, Coriolus versicolor. As to the method:
3.0 ml of an enzyme-containing solution consisting of 1.0 ml of 0.1M Tris-HC1 buffer, pH 7.0, 0.2 ml of a color-producing solution (prepared by adding 2000 U peroxidase to 100 ml of 0.1 M Tris-HCl buffer, pH 7.0 containing 10 mM 4-aminoantipyrine and 10 mM phenol), 0.1 ml of 1M glucose, 0.1 ml pyranose oxidase solution and 1.6 ml water was allowed to react at 37° C., and the increase in absorbance at 500 nm was determined with U2000 double beam spectrophotometer (manufactured by Hitachi, Ltd.).
One unit of enzyme activity is defined as the amount of enzyme which causes formation of 1 μmol of hydrogen peroxide per minute at 37° C., pH 7.0. The calculation of […] was carried out using the following equation assuming that the molecular extinction coefficient of the quinoimine pigment formed under the above conditions is 5.3 x 10^3 : Enzyme activity: (ΔA500 /5.3)×(3.0/0.1)×dilution degree of enzyme.
For examination of the substrate specificity of the present enzyme, each of sugar solutions (0.1 M) shown in Table 1 was used in place of glucose in the method described in (1) above. 2.5 units of pyranose oxidase were added to the reaction solution. The activity for each substrate is shown in relative activity that is expressed relative to that (100%) for the substrate glucose.
Regarding mannose, the “relative activity (%)” value is reported as 0.2%.

On to galactose, for which the “relative activity (%)” value worked out at 3.2%.

Still in this assay, the particulars now being: pH 7, read-out: relative activity (%).
In the case of `O=C(CO)[C@@H](O)[C@H](O)[C@@H](O)CO` [L-sorbose], the activity at 3300 µM was found to be 9%.

The assay is the same for the next values; noted with them: substrate 3.3 mM; relative to glucose = 100%; 2.5 units of pyranose oxidase; 37° C., pH 7.0.
Take `OC[C@H]1O[C@H](O[C@H]2O[C@H](CO)[C@@H](O)[C@H](O)[C@H]2O)[C@H](O)[C@@H](O)[C@@H]1O` [trehalose]: the “relative activity (%)” value is 0.1%.

For the compound `O=C(O)[C@H](O)[C@@H](O)[C@H](O)[C@H](O)CO` [gluconic acid], the “relative activity (%)” value was found to be 0.4%.

Regarding `OC[C@H]1O[C@H](O[C@H]2[C@H](O)[C@@H](O)[C@H](O)O[C@@H]2CO)[C@H](O)[C@@H](O)[C@@H]1O` [maltose], the “relative activity (%)” value stood at 1.1%.

The same assay, now with this note: substrate 3.3 mM; relative to glucose = 100%; 2.5 units of pyranose oxidase; 37° C., pH 7.0; read-out: relative activity (%).
With `OC[C@H]1O[C@@](CO)(O[C@H]2O[C@H](CO)[C@@H](O)[C@H](O)[C@H]2O)[C@@H](O)[C@@H]1O` [sucrose], the activity at 3300 µM is 0%.

Turning to `OC[C@H]1OC(O)C[C@@H](O)[C@@H]1O` (stereo partly drawn) [2-deoxy-D-glycose], the activity at 3300 µM was found to be 1.6%.

`OC[C@H]1OC[C@H](O)[C@@H](O)[C@@H]1O` [1,5-anhydro-D-glucitol]: the activity at 3300 µM is 14.2%.

As to `CC(=O)N[C@H]1C(O)O[C@H](CO)[C@@H](O)[C@@H]1O` (stereo partly drawn) [N-acetyl-D-glucosamine], the activity at 3300 µM is 0%.

With `OC[C@H]1O[C@H](OC[C@H]2O[C@H](O[C@]3(CO)O[C@H](CO)[C@@H](O)[C@@H]3O)[C@H](O)[C@@H](O)[C@@H]2O)[C@H](O)[C@@H](O)[C@H]1O` [raffinose], the activity at 3300 µM came out at 0%.

For `OC1OC[C@@H](O)[C@H](O)[C@H]1O` (stereo partly drawn) [D-xylose], the activity at 3300 µM is 6.5%.

`O=C1O[C@H](CO)[C@@H](O)[C@H](O)[C@H]1O` [D-gluconic acidδ lactone]: the activity at 3300 µM turned out to be 0.4%.

`OC[C@@H](O)[C@H](O)[C@@H](O)CO` [xylitol]: the activity at 3300 µM was 0%.

Regarding `C[C@@H]1OC(O)[C@H](O)[C@H](O)[C@H]1O` (stereo partly drawn) [L-rhamnose], the activity at 3300 µM was found to be 0.1%.

Regarding `OC[C@@H](O)[C@@H](O)[C@H](O)[C@@H](O)CO` [D-sorbitol], the activity at 3300 µM came to 0%.

The same assay, now with this note: summary of Table 1.
As for `OC[C@H]1OC[C@H](O)[C@@H](O)[C@@H]1O` [1,5-anhydro-D-glucitol], the “substrate specificity in words” value is on record as “acts on”.

Take galactose: the “substrate specificity in words” value is reported as “acts on”.

`OC1OC[C@@H](O)[C@H](O)[C@H]1O` (stereo partly drawn) [D-xylose]: the “substrate specificity in words” value is “acts on”.
